# Results taken from patent US9249129B2, “Morpholino substituted urea derivatives as mTOR inhibitors” (CELLZOME LIMITED, priority 2010, dated 2016).
# Tests used:
# Assay in all cases: kinobeads assay with mass spectrometry detection of kinases (kinase selectivity profile)
# Type in all cases: binding
# kinases (kinome) [1] = target: T1, kinases (kinome) (Homo sapiens, UniProt Q14164); settings: IKKe (Other), IPI00029045
# T1 construct: determined in kinobeads assays with mass spectrometry detection of kinases as described previously; endogenous in cells; host or cells: cell lysate
# T1 sequence (Q14164 1-716): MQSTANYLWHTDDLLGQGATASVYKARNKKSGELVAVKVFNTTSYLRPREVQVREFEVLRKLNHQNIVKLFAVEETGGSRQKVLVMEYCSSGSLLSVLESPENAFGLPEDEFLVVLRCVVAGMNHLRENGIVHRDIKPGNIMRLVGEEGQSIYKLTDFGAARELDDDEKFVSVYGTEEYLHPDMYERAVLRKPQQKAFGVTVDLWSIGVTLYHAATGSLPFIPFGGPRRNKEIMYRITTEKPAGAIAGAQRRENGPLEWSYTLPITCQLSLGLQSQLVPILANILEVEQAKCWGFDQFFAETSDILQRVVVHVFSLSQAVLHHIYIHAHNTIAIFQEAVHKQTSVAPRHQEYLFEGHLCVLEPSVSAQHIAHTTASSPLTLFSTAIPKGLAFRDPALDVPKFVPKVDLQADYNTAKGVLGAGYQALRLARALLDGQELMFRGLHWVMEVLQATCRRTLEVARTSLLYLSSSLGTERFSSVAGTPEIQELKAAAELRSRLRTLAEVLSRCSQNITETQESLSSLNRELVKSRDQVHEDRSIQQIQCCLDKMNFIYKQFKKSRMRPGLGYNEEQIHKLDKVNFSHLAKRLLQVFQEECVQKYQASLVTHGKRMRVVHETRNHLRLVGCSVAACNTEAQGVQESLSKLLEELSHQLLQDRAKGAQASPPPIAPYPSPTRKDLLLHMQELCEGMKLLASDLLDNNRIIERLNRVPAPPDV
# Source text: (§1) The protein kinase complement of the human genome (the kinome) was described previously (Manning et al., 2002. Science 298(5600):1912-1934). Sequence accession numbers are defined by the International Protein Index (IPI) (Kersey et al., 2004. Proteomics 4(7):1985-1988).
# kinases (kinome) [2] = target: T2, kinases (kinome) (Homo sapiens, UniProt O43353); settings: RIPK2 (TKL), IPI00021917
# T2 construct: determined in kinobeads assays with mass spectrometry detection of kinases as described previously; endogenous in cells; host or cells: cell lysate
# Source text: as §1
# kinases (kinome) [3] = target: T3, kinases (kinome) (Homo sapiens, UniProt O14965); settings: AurA (Other), IPI00298940
# T3 construct: determined in kinobeads assays with mass spectrometry detection of kinases as described previously; endogenous in cells; host or cells: cell lysate
# T3 sequence (O14965 1-403): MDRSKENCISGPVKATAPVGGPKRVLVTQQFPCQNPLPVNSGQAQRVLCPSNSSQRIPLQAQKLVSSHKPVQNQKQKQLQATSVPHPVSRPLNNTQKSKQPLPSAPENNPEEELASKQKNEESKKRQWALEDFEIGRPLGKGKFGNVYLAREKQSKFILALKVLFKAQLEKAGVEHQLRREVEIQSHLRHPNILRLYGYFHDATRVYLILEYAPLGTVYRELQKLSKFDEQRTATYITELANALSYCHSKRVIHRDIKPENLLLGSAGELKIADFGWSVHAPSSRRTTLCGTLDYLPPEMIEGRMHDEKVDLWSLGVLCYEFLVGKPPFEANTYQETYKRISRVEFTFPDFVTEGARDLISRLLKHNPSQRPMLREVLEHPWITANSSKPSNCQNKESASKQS
# Source text: as §1
# kinases (kinome) [4] = target: T4, kinases (kinome) (Homo sapiens, UniProt O00444); settings: PLK4 (Other), IPI00410344
# T4 construct: determined in kinobeads assays with mass spectrometry detection of kinases as described previously; endogenous in cells; host or cells: cell lysate
# T4 sequence (O00444 1-970): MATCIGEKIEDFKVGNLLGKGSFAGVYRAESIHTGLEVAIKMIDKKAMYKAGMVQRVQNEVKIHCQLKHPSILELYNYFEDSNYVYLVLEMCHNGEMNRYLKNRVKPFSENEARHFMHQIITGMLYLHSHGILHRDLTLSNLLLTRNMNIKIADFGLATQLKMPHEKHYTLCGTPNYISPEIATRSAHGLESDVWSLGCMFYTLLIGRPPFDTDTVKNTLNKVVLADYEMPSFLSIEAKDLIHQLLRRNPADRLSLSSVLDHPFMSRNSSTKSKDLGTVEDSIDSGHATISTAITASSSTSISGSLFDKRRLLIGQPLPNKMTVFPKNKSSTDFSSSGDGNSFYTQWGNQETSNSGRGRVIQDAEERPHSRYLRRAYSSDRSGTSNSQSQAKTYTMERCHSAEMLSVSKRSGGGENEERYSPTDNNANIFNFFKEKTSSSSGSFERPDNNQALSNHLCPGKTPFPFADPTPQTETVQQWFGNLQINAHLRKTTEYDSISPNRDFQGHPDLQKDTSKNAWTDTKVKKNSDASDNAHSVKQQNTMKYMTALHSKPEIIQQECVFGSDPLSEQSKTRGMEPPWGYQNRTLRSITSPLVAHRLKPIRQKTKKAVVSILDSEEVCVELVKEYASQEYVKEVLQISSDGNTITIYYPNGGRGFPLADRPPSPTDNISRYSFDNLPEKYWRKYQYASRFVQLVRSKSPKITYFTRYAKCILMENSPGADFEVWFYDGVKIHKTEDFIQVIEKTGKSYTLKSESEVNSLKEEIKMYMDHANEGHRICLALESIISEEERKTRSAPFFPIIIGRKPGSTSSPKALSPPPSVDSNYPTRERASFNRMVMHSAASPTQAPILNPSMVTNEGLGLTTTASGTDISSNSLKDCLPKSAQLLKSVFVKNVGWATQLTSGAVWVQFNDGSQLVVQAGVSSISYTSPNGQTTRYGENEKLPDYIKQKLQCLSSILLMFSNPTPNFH
# Source text: as §1
# kinases (kinome) [5] = target: T5, kinases (kinome) (Homo sapiens, UniProt P42336); settings: PIK3Ca (Lipid Kinase), IPI00031386
# T5 construct: determined in kinobeads assays with mass spectrometry detection of kinases as described previously; endogenous in cells; host or cells: cell lysate
# Source text: as §1
# T5 sequence (P42336 whole entry): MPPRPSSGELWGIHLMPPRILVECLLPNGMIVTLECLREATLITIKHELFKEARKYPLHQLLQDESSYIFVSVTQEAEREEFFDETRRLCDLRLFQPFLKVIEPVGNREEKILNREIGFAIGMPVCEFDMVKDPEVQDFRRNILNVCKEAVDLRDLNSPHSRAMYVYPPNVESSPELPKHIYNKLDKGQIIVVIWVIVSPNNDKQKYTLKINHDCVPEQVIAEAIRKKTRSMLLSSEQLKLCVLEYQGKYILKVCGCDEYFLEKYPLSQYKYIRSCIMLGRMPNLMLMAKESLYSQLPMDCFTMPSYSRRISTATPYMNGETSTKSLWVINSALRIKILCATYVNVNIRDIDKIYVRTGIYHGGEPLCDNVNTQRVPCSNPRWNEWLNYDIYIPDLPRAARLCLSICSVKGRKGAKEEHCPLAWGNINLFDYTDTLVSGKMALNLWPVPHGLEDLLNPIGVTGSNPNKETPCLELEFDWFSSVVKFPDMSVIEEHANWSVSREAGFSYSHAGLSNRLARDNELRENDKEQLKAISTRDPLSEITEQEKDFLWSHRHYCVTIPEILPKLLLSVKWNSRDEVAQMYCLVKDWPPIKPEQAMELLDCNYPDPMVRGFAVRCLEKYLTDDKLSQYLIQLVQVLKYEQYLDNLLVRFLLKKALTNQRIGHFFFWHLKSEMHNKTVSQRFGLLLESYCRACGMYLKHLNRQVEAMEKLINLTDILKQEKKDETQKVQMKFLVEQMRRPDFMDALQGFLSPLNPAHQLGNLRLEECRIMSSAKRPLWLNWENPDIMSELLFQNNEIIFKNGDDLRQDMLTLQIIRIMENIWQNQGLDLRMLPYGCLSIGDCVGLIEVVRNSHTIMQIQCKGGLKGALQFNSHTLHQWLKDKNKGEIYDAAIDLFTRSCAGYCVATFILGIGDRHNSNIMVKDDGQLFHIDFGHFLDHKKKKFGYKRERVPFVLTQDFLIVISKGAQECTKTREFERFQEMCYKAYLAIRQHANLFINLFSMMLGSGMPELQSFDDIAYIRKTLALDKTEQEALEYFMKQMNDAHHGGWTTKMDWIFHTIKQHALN
# T2 sequence (O43353 whole entry): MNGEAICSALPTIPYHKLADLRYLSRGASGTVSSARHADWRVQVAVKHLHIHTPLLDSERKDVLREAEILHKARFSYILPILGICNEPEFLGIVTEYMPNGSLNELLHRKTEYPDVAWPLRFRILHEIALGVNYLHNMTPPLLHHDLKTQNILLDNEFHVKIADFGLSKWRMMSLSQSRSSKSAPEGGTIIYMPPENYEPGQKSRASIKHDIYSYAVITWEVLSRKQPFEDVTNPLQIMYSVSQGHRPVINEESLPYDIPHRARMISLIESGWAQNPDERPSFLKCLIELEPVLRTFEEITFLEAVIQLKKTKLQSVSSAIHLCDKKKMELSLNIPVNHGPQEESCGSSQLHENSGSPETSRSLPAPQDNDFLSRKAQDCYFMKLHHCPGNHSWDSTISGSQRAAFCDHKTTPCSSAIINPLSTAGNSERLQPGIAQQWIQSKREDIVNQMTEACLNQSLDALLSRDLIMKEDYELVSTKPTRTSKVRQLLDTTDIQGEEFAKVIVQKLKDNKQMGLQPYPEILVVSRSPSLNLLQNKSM
Compound,IC50 (kinases (kinome) [1]) [µM],IC50 (kinases (kinome) [2]) [µM],IC50 (kinases (kinome) [3]) [µM],IC50 (kinases (kinome) [4]) [µM],IC50 (kinases (kinome) [5]) [µM]
"C[C@H]1COCCN1c1cc(-c2ccccc2S(C)(=O)=O)nc(-c2ccc(NC(=O)NC3CC3)cc2)n1 [Example 6, (S)-1-cyclopropyl-3-(4-(4-(3-methylmorpholino)-6-(2-(methylsulfonyl)phenyl)pyrimidin-2-yl)phenyl)urea]",> 10,> 10,> 10,> 10,> 10
"C[C@H]1COCCN1c1nc(-c2ccc(NC(=O)NC3CC3)cc2)cc(-c2cccnc2S(C)(=O)=O)n1 [Example 46, (S)-1-cyclopropyl-3-(4-(2-(3-methylmorpholino)-6-(2-(methylsulfonyl)pyridin-3-yl)pyrimidin-4-yl)phenyl)urea]",> 10,> 10,> 10,> 10,> 10
"C[C@H]1COCCN1c1nc(-c2ccc(NC(=O)N[C@H]3CCC[C@@H]3O)cc2)cc(-c2cc(F)ccc2S(C)(=O)=O)n1 [Example 76, 1-(4-(6-(5-fluoro-2-(methylsulfonyl)phenyl)-2-((S)-3-methylmorpholino)pyrimidin-4-yl)phenyl)-3-((1S,2S)-2-hydroxycyclopentyl)urea]",> 10,> 10,> 10,> 10,> 10
"C[C@H]1COCCN1c1cc(-c2ccccn2)nc(-c2ccc(NC(=O)NCCO)cc2)n1 [Example 43, (S)-1-(2-hydroxyethyl)-3-(4-(4-(3-methylmorpholino)-6-(pyridin-2-yl)pyrimidin-2-yl)phenyl)urea]",> 10,> 10,> 10,> 10,> 10

# The next lines start with the values.
IC50 (kinases (kinome) [1]) [µM],IC50 (kinases (kinome) [2]) [µM],IC50 (kinases (kinome) [3]) [µM],IC50 (kinases (kinome) [4]) [µM],IC50 (kinases (kinome) [5]) [µM],Compound
> 10,> 10,> 10,> 10,> 10,"CCNC(=O)Nc1ccc(-c2cc(-c3ccccc3C#N)nc(N3CCOC[C@@H]3C)n2)cc1 [Example 8, (S)-1-(4-(6-(2-cyanophenyl)-2-(3-methylmorpholino)pyrimidin-4-yl)phenyl)-3-ethylurea]"
> 10,> 10,> 10,> 10,> 10,"C[C@H]1COCCN1c1nc(-c2ccc(NC(=O)NC3CC3)cc2)cc(-c2ccccc2S(C)(=O)=O)n1 [Example 4, (S)-1-cyclopropyl-3-(4-(2-(3-methylmorpholino)-6-(2-(methylsulfonyl)phenyl)pyrimidin-4-yl)phenyl)urea]"
> 10,> 10,> 10,> 10,> 10,"C[C@H]1COCCN1c1nc(-c2ccc(NC(=O)NC3CC3)cc2)cc(-c2cc(F)ccc2S(C)(=O)=O)n1 [Example 40, (S)-1-cyclopropyl-3-(4-(6-(5-fluoro-2-(methylsulfonyl)phenyl)-2-(3-methylmorpholino)pyrimidin-4-yl)phenyl)urea]"
